biological target: T1, human Werner helicase (WRN-BV08, Uniprot Q14191, amino acids 517-1235 with L1074F point mutation) (Homo sapiens, UniProt Q14191, L1074F); experiment: WRN (BV08) ADP-Glo Assay; format: biochemical; details: 0.15 nM WRN, 5 μM ATP, 0.1 nM DNA duplex, 15 min preincubation, 60 min at 25° C., pH 7.5, 1% DMSO; read-out: ADP-Glo_hWRN_IC50
T1 construct: Uniprot Q14191, amino acids 517-1235 with L1074F point mutation; TEV-cleavable 8×His (C, cleaved yes); made in house; host or cells: Sf9 insect cells (baculovirus)
From the text: Example 2: WRN (BV08) ADP-Glo Assay Protocol
Bovine skin gelatin (BSG), dimethyl sulfoxide (DMSO), Pluronic F-127 and Tris(2-carboxyethyl)phosphine hydrochloride solution (TCEP) were purchased from Sigma-Aldrich at the highest level of purity possible. Bicine buffer solution was purchased from Alfa Aesar and compound NSC-617145 was purchased from Tocris. DNA duplex was synthesized at BGI (Shenzhen, China) and was composed of strand 1 with the sequence 5′-[…]-3′ (SEQ ID NO.: 1) and strand 2 with the sequence 5′-[…]-3′ (SEQ ID NO.: 2). DNA strands were annealed by heating to 95° C. for 5 minutes followed by slow cooling to room temperature. Compounds in 100% DMSO (0.1 μl) were spotted into a 384-well white polystyrene Optiplate-384 (Perkin Elmer) assay plate using a LabCyte Echo 550 (Agilent). DMSO (0.1 μl) was added to columns 12, rows A-H and column 24, rows I-P for the maximum signal control. Compound NSC-617145 (0.1 μl) was added to columns 12, rows I-P and 24, rows A-H for the minimum signal control (100% inhibition). Compounds/DMSO were preincubated for 15 minutes at 25° C. with 5 uL 2×WRN (BV08), prepared as described below, in assay buffer containing 20 mM Bicine (pH=7.5), 1 mM MgCl2, 10 mM KCl, 0.1% Pluronic F-127, 0.005% BSG, 1 mM TCEP. The reaction was initiated by the addition of 5 μl 2× substrate mixture in assay buffer and incubated for 60 minutes at 25° C. The final concentrations of the assay components were 0.15 nM WRN, 5 μM ATP, and 0.1 nM DNA duplex. The final DMSO concentration was 1% and the reference compound concentration (NSC-617145) used for the minimal signal control was 20 μM. The reaction was stopped by the addition of the ADP-Glo Kit components (Promega) as directed and the relative luminescence units (RLU) were read on an Envision 2104 (Perkin Elmer).
% Inhibition Calculation:
Where RLU=relative luminescence units, sample=signal in sample well, and MIN and MAX are the respective minimum and maximum signal controls.
Four-Parameter IC50 Fit Equation:
Where top and bottom are normally allowed to float but may be fixed at 100 or 0 respectively in a 3-parameter fit. Y is the % inhibition and X is the compound concentration.
Molecular Biology and virus production. The DNA encoding human Werner helicase (Uniprot Q14191, amino acids 517-1235 with L1074F point mutation) was generated with codon-optimization for E. coli expression and subcloned into the pFastBac vector with a TEV cleavable 8×His tag (WRN-BV08). The baculovirus from the expression plasmid WRN-BV08 was generated from transfection and amplification following the manufacturer's instructions.
Sf9 cells grown in SF900II media were infected with 1:200 WRN-BV08 P2 virus and incubated for protein expression for 72 h at 27° C. The WRN protein was purified using the following protocol. The cell pellets were thawed and resuspended in buffer A (50 mM Tris, pH 7.5, 500 mM NaCl, 1 mM TCEP, 10% Glycerol) supplemented with 0.5% CHAPS, 1 mM [COMPOUND LEFT OUT], 1 μg/mL Leupeptin, 1 μg/mL Pepstatin, and the Pierce Universal Nuclease and cocktail tablet. Cleared lysates were loaded onto a Ni Sepharose™ excel column and washed with buffer A and bound protein was eluted with buffer A supplemented with 300 mM imidazole. The eluted protein was dialyzed against buffer A and digested by His-tagged TEV (1:5 ratio) overnight at 4° C. ZnCl2 was added into the sample at final 15 μM before loading onto a second Ni Sepharose™ excel column. Untagged WRN protein was eluted from the column with buffer A supplemented with 20 mM imidazole, dialyzed overnight into buffer B (50 mM Tris, pH 7.5, 1 mM TCEP, 10% Glycerol) supplemented with 150 mM NaCl and loaded onto a Heparin column. Proteins were eluted with a step gradient of buffer B supplemented with 150 mM, 200 mM, 300 mM and 500 mM NaCl. […]

T1 sequence (Q14191 with tags, fused parts or gaps L1074F limits assumed): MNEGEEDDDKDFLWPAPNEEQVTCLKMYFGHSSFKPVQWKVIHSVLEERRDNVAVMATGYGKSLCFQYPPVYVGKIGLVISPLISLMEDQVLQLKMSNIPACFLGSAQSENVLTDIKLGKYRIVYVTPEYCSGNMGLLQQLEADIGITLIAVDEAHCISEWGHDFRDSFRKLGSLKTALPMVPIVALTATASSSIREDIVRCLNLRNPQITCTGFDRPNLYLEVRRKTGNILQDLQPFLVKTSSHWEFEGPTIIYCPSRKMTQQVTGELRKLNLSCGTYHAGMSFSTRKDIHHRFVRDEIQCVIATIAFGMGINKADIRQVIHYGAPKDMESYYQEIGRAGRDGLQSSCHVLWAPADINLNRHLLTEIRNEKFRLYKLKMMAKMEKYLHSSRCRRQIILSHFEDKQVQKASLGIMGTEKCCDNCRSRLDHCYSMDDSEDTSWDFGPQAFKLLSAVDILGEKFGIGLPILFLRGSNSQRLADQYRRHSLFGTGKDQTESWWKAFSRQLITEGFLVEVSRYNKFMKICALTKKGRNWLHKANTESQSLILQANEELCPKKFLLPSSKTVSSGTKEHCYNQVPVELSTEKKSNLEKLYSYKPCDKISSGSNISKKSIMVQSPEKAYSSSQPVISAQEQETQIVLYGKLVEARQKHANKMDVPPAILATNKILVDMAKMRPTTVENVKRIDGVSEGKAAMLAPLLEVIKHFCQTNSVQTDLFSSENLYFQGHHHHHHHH

**Q.** How did the IC50 turn out when `COc1cc(CN(C(=O)Cc2ccc([C@@H]3C[C@H]3C(F)(F)F)cc2)[C@@H]2C=CS(=O)(=O)C2)ccn1` (mixture of isomers) [I-784, N-[(3R)-1,1-dioxo-2,3-dihydro-1lambda6-thiophen-3-yl]-N-[(2-methoxypyridin-4-yl)methyl]-2-{4-[(1RS,2RS)-2-(trifluoromethyl)cyclopropyl]phenyl}acetamide] was run?
**A.** 5000 to 10000 nM

**Q.** `O=C([C@H]1CC[C@@H](c2ccccc2)O1)N(Cc1ccncc1)C1C=CS(=O)(=O)C1` (mixture of isomers) [I-652, rac-(2R,5S)-N-(1,1-dioxo-2,3-dihydro-1lambda6-thiophen-3-yl)-5-phenyl-N-[(pyridin-4-yl)methyl]oxolane-2-carboxamide] was tested. Which IC50 did it give?
**A.** > 50000 nM

**Q.** How did the IC50 turn out when `O=C([C@@H]1CC[C@@H](c2ccccc2)C1)N(Cc1ccncc1)C1C=CS(=O)(=O)C1` (mixture of isomers) [I-655, rac-(1R,3R)-N-(1,1-dioxo-2,3-dihydro-1lambda6-thiophen-3-yl)-3-phenyl-N-[(pyridin-4-yl)methyl]cyclopentane-1-carboxamide] was run?
**A.** > 50000 nM

**Q.** How did the IC50 turn out when `O=C([C@H]1CC[C@@H](C(F)(F)F)O1)N(Cc1ccncc1)C1C=CS(=O)(=O)C1` (mixture of isomers) [I-714, rac-(2R,5S)-N-(1,1-dioxo-2,3-dihydro-1lambda6-thiophen-3-yl)-N-[(pyridin-4-yl)methyl]-5-(trifluoromethyl)oxolane-2-carboxamide] was run?
**A.** > 50000 nM

**Q.** Which IC50 does the source give for `O=C([C@@H]1[C@H]2C[C@]1(c1cccc(F)c1)CO2)N(Cc1ccncc1)C1C=CS(=O)(=O)C1` (mixture of isomers) [I-715, rac-(1R,4S,5S)-N-(1,1-dioxo-2,3-dihydro-1lambda6-thiophen-3-yl)-4-(3-fluorophenyl)-N-[(pyridin-4-yl)methyl]-2-oxabicyclo[2.1.1]hexane-5-carboxamide] here?
**A.** > 50000 nM

**Q.** Which IC50 does the source give for `O=C([C@H]1CC[C@@H](Cn2cccn2)O1)N(Cc1ccncc1)C1C=CS(=O)(=O)C1` (mixture of isomers) [I-716, rac-(2R,5S)-N-(1,1-dioxo-2,3-dihydro-1lambda6-thiophen-3-yl)-5-[(1H-pyrazol-1-yl)methyl]-N-[(pyridin-4-yl)methyl]oxolane-2-carboxamide] here?
**A.** > 50000 nM

**Q.** `O=C([C@@H]1[C@@H]2CC[C@@]1(c1cccc(Br)c1)C2)N(Cc1ccncc1)C1C=CS(=O)(=O)C1` (mixture of isomers) [I-755, rac-(1R,4R,5R)-1-(3-bromophenyl)-N-(1,1-dioxo-2,3-dihydro-1lambda6-thiophen-3-yl)-N-[(pyridin-4-yl)methyl]bicyclo[2.1.1]hexane-5-carboxamide] was tested. Which IC50 did it give?
**A.** > 50000 nM

**Q.** With `CC(C)(O)c1cc(CN(C(=O)Cn2cc(-c3cc(F)c(F)c(F)c3)cn2)C2C=CS(=O)(=O)C2)ccn1` (single isomer, unassigned) [I-1] as the compound, how does the IC50 read?
**A.** < 500 nM

**Q.** With `COC(C(=O)N(Cc1ccnc(C(C)(C)O)c1)[C@@H]1C=CS(=O)(=O)C1)c1ccc(-c2ccc(F)c(F)c2)cc1F` (single isomer, unassigned) [I-2] as the compound, how does the IC50 read?
**A.** < 500 nM

**Q.** For `O=C(Cc1ccc(S(F)(F)(F)(F)F)cc1)N(Cc1nc(C2CC2)cs1)C1C=CS(=O)(=O)C1` (single isomer, unassigned) [I-4], which IC50 is on record?
**A.** < 500 nM

**Q.** How did the IC50 turn out when `O=C(Cn1cc(-c2ccc(F)c(F)c2)cn1)N(Cc1nc(C2CC2)cs1)C1C=CS(=O)(=O)C1` (single isomer, unassigned) [I-5, N-((4-cyclopropylthiazol-2-yl)methyl)-2-(4-(3,4-difluorophenyl)-1H-pyrazol-1-yl)-N-(1,1-dioxido-2,3-dihydrothiophen-3-yl)acetamide] was run?
**A.** < 500 nM

**Q.** `CN(C)C(=O)C(C(=O)N(Cc1ccnc(C(C)(C)O)c1)C1C=CS(=O)(=O)C1)c1ccc(-c2ccc(F)cc2)cc1` (single isomer, unassigned) [I-8, N1-(-1,1-dioxido-2,3-dihydrothiophen-3-yl)-2-(4′-fluoro-[1,1′-biphenyl]-4-yl)-N1-((2-(2-hydroxypropan-2-yl)pyridin-4-yl)methyl)-N3,N3-dimethylmalonamide] was tested. Which IC50 did it give?
**A.** < 500 nM

**Q.** For `COC(C(=O)N(Cc1ccnc(C(C)(C)O)c1)C1C=CS(=O)(=O)C1)c1ccc(-c2ccc(F)cc2)cc1F` (single isomer, unassigned) [I-10, (2R*)-2-{3,4′-difluoro-[1,1′-biphenyl]-4-yl}-N-[(3R**)-1,1-dioxo-2,3-dihydro-1lambda6-thiophen-3-yl]-N-{[2-(2-hydroxypropan-2-yl)pyridin-4-yl]methyl}-2-methoxyacetamide], which IC50 is on record?
**A.** < 500 nM

**Q.** Which IC50 does the source give for `CC(C)(O)c1cc(CN(C(=O)Cc2ccc(-c3ccc(F)c(F)c3)cc2F)C2C=CS(=O)(=O)C2)ccn1` (single isomer, unassigned) [I-11] here?
**A.** < 500 nM

**Q.** Which IC50 does the source give for `CN(C)C(=O)C(C(=O)N(Cc1ccnc(C(C)(C)O)c1)C1C=CS(=O)(=O)C1)c1ccc(-c2ccc(F)cc2)cc1F` (single isomer, unassigned) [I-12, (2R**)-2-{3,4′-difluoro-[1,1′-biphenyl]-4-yl}-N-[(3R*)-1,1-dioxo-2,3-dihydro-1lambda6-thiophen-3-yl]-N-{[2-(2-hydroxypropan-2-yl)pyridin-4-yl]methyl}-N′,N′-dimethylpropanediamide] here?
**A.** < 500 nM

**Q.** Which IC50 does the source give for `CN(C)C(=O)C(C(=O)N(Cc1ccncc1)C1C=CS(=O)(=O)C1)c1ccc(-c2ccc(F)cc2)cc1` (single isomer, unassigned) [I-27, (2R**)-N′-[(3R*)-1,1-dioxo-2,3-dihydro-1lambda6-thiophen-3-yl]-2-{4′-fluoro-[1,1′-biphenyl]-4-yl}-N,N-dimethyl-N′-[(pyridin-4-yl)methyl]propanediamide] here?
**A.** < 500 nM

**Q.** Which IC50 does the source give for `COc1cc(CN(C(=O)Cc2ccc(-n3cccc3C)cc2F)C2C=CS(=O)(=O)C2)ccn1` (single isomer, unassigned) [I-31] here?
**A.** < 500 nM

**Q.** For `COc1cc(CN(C(=O)C(OC)c2ccc(-c3ccc(F)cc3)cc2F)C2C=CS(=O)(=O)C2)ccn1` (single isomer, unassigned) [I-33, (2R*)-2-{3,4′-difluoro-[1,1′-biphenyl]-4-yl}-N-[(3R**)-1,1-dioxo-2,3-dihydro-1lambda6-thiophen-3-yl]-2-methoxy-N-[(2-methoxypyridin-4-yl)methyl]acetamide], which IC50 is on record?
**A.** < 500 nM

**Q.** `COc1cc(CN(C(=O)Cc2ccc(-c3ccc(F)c(F)c3)cc2F)C2C=CS(=O)(=O)C2)ccn1` (single isomer, unassigned) [I-35] was tested. Which IC50 did it give?
**A.** < 500 nM

**Q.** How did the IC50 turn out when `CC(C)(O)c1cc(CN(C(=O)Cc2ccc(-n3cccc3)cc2F)C2C=CS(=O)(=O)C2)ccn1` (single isomer, unassigned) [I-40] was run?
**A.** < 500 nM

**Q.** How did the IC50 turn out when `CC(C)(O)c1cc(CN(C(=O)Cc2ncc(-c3ccc(F)c(F)c3)cc2F)C2C=CS(=O)(=O)C2)ccn1` (single isomer, unassigned) [I-50, 2-(5-(3,4-difluorophenyl)-3-fluoropyridin-2-yl)-N-(1,1-dioxido-2,3-dihydrothiophen-3-yl)-N-((2-(2-hydroxypropan-2-yl)pyridin-4-yl)methyl)acetamide] was run?
**A.** < 500 nM

**Q.** For `O=C(Cc1ccc(S(F)(F)(F)(F)F)cc1)N(Cc1ccncc1)C1C=CS(=O)(=O)C1` (single isomer, unassigned) [I-51], which IC50 is on record?
**A.** < 500 nM

**Q.** How did the IC50 turn out when `COc1cc(CN(C(=O)Cc2ccc(C(F)(F)F)cc2)C2C=CS(=O)(=O)C2)ccn1` (single isomer, unassigned) [I-57] was run?
**A.** < 500 nM

— patent publication US20260297070A1, “CYCLIC [COMPOUND LEFT OUT] WRN INHIBITORS” (Nimbus Wadjet, Inc., priority 2023, published 2026)
